These results are taken from US20060165731A1, “Vaccines” (British Technology Group Ltd., priority 1986, published 2006).

Molecules are shown by their SMILES.

Common to all, as to assay type: in vivo, Eimeria (in Cobb broiler chickens)
Assay [1] relates to seven homologous strains of each of the seven species of Eimeria. The assay can be described thus: Vaccine trial in Cobb broiler chickens, homologous challenge. From the text:
(§1) The vaccine of Example 3 was used in a trial conducted on 4,480 Cobb broiler chickens kept in floor pens. The concentration of xanthan gum in the vaccine was adjusted so that administration of 140 doses of vaccine to each drinking vessel provided a final xanthan gum concentration of 0.03%. The trial was designed to compare the performance of birds vaccinated with live attenuated coccidiosis vaccine of the invention and birds fed the coccidiostat, monensin, in the face of a challenge with seven homologous or seven heterologous strains of each of the seven species of Eimeria. The heterologous strains were chosen on the basis that they were either thought to be more pathogenic than the homologous ones or antigenically distinct.
(§2) Birds were penned in groups of 140. Four pens were allocated to each treatment and two pens were allocated to each control group. […] The allocation of pens to treatment was randomised throughout the broiler house. The design of the trial was as follows:
(§3) The vaccine was administered via the drinking water. The birds were fed a ration based on a commercial formulation which included the antibiotic growth promoter avoparcin at 10 ppm. The anticoccidial drugs were administered in the feed.
(§4) It should be noted that, in order to prevent infection by wild Eimeria strains, and consequent development of immunity, the two control groups were fed robenidine (30 ppm) for 28 days. One group received a heterologous challenge and the other received a homologous challenge.
(§5) All birds received an individual oral challenge administered by inoculation into the crop on day 31. The numbers of oocysts of each species in the challenge doses were as follows:—
(§6) Liveweights and cumulative feed intakes were measured on days 30, 37 and 49. Feed conversion ratios were calculated by dividing the feed intake by the gain in liveweight from day 1. Counts of oocysts in the litter were made for each pen at weekly intervals. On day 37, a sample of 5 birds from each pen (total 160) was culled and coccidiosis lesion scores were estimated. Scores were made on a scale of 0 to 3.5 in ascending severity of the lesions symptomatic of infection with E. acervulina, E. brunetti, E. maxima/necatrix (grouped together because they are difficult to distinguish) and E. tenella. Mean lesion scores were calculated.

For assay [2], the system named is seven heterologous strains of each of the seven species of Eimeria. The assay can be described thus: Vaccine trial in Cobb broiler chickens, heterologous challenge.
From the text: as §1, §2, §3, §4, §5, §6

Assay [3] has as its system seven homologous or seven heterologous strains of each of the seven species of Eimeria. The assay can be described thus: Vaccine trial in Cobb broiler chickens, overall (homologous and heterologous challenge).
From the text: as §1, §2
The vaccine was administered via the drinking water. The birds were fed a ration based on a commercial formulation which included the antibiotic growth promoter avoparcin at 10 ppm. […]
Liveweights and cumulative feed intakes were measured on days 30, 37 and 49. Feed conversion ratios were calculated by dividing the feed intake by the gain in liveweight from day 1. […] Mean lesion scores were calculated.

`CC[C@@]1([C@@H]2O[C@@H]([C@H]3O[C@@](O)(CO)[C@H](C)C[C@@H]3C)C[C@@H]2C)CC[C@H]([C@]2(C)CC[C@]3(C[C@H](O)[C@@H](C)[C@@H]([C@@H](C)[C@@H](OC)[C@H](C)C(=O)O)O3)O2)O1` [Monensin, monensin]: the “Mean Lesion Score E. acervulina” value came to 0 in assay [1] (Homologous challenge, day 37, scale of 0 to 3.5, control 0.2) and 0.10 in assay [2] (Heterologous challenge, day 37, scale of 0 to 3.5, control 0.30). In addition, the “Mean Lesion Score E. brunetti” value in assay [1] (Homologous challenge, day 37, scale of 0 to 3.5, control 0.40) was 0.03; in assay [2] (Heterologous challenge, day 37, scale of 0 to 3.5, control 0.70), 0. Also, the “Mean Lesion Score E. maxima/necatrix” value in assay [1] (Homologous challenge, day 37, scale of 0 to 3.5, control 1.25) worked out at 0.13; in assay [2] (Heterologous challenge, day 37, scale of 0 to 3.5, control 2.00) it was 0.95. Besides, the “Mean Lesion Score E. tenella” value amounted to 0.20 in assay [1] (Homologous challenge, day 37, scale of 0 to 3.5, control 2.25) and 1.53 in assay [2] (Heterologous challenge, day 37, scale of 0 to 3.5, control 2.65). Moreover, the LIVEWEIGHTS in assay [1] (day 49, Homologous Challenge on day 31, control 2225) came to 2489 g/bird; in assay [2] (day 49, Heterologous Challenge on day 31, control 2197), 2407 g/bird. For the same compound, the “Counts of oocysts in the litter, pens of monensin treated birds relative to pens of vaccinated birds” value in assay [2] (after challenge with heterologous strains, on average, very high pen to pen variation) is on record as “two or three times higher”. Further, in assay [2] (in each case lower than the controls), the “Lesion scores for heterologous E. maxima/necatrix” value is on record as “Slightly elevated scores”. The “Lesion scores after either homologous or heterologous challenge” value in assay [3] (compared with controls) is recorded as “lower lesion scores”. Further, in assay [3] (vaccine compared with monensin), the “Protecting against coccidial challenge (performance of the birds, overall)” value is on record as “equally effective”.
